Results published in patent publication US5409926A, “AT-2 antagonist inhibition of vascular restenosis” (Merck & Co., Inc., priority 1993, dated 1995).
Entries after “also recorded” stand apart in the source; their conditions may differ.

How the values were obtained:
Assay type in all cases: in vivo
restenosis in the rat [1] = assay: Effect of Compound I on restenosis in the rat: dose-response study; details: for I/M / Intima Area / Media Area: day 14
Protocol: The effect of Compound I on restenosis in the Rat: Dose-response study
Compound I was delivered as an i.v. bolus at the time of angioplasty (0.1-1.0 mg/kg) followed by continuous i.v. infusion (0.1-1.0 mg/kg/day) until sacrifice on day 14.

[2] = test system: rat carotid artery model of balloon angioplasty; assay: Enalaprilat, Compound II, Compound I in rat carotid artery model of balloon angioplasty; details: 1 mg/kg/day continuous i.v.; for Intimal Area + sem / % Inhibition (intimal area): pretreatment (pt), 14 days; for % Inhibition (intimal area): vs. control; for inhibition of restenosis / neointima (in words): pretreatment
Protocol: AII Receptor Antagonist: The effect of enalaprilat, the AII (site 2) receptor antagonist, Compound II, and Compound II in combination with the AII (site 1) receptor antagonist, Compound I, were evaluated in the rat carotid artery model of balloon angioplasty. Rats were pretreated surgery and drag treatment was continued (1 mg/kg/day, continuous i.v.) by ALZET minipump for the duration of the experiments. Fourteen days after balloon angioplasty, the rats were sacrificed and the extent of restenosis was determined by morphometric measurements of the newly-formed intima.

restenosis in the rat [3] = assay: Effect of AII + Compound I on restenosis in the rat; details: for effect on formation of the neointima (in words): exogenous AII 14 ug/kg/hr i.v., with or without Compound I
Protocol: The effect of AII+Compound I on restenosis in the rat
AII was delivered by continuous i.v. infusion (14 ug/kg/hr) beginning at the time of angioplasty. Compound I was delivered as an i.v. bolus at the time of angioplasty (1.0 mg/kg) followed by continuous i.v. infusion (1.0 mg/kg/day). Rats were sacrificed on day 14.

restenosis in the rat [4] = assay: Effect of Compound I pretreatment and Compound I-Heparin combination therapy on restenosis in the rat; details: for Intima Area: average ± sem
Protocol: The effect of Compound I pretreatment and Compound I--Heparin Combination therapy on restenosis in the rat
Compound I was delivered as an i.v. bolus at the time of angioplasty (1.0 mg/kg) followed by continuous i.v. infusion (1.0 mg/kg/day). Some groups were pretreated with Compound I. Pretreatment (PreRx) was begun 48 hr (1 mg/kg/day, i.v. bolus) prior to angioplasty. In all cases, Compound I treatment was continued for 14 days post-angioplasty. Other groups received Compound I in conjunction with heparin (0.3 mg/kg i.v. bolus+0.3 mg/kg/hr continuous i.v.) begun at the time of angioplasty and discontinued either 2 or 4 days later. The Hep 4d and Hep 2d data from above is included.

restenosis in the rat [5] = assay: Effect of Compound II or Compound I pretreatment on restenosis in the rat; details: 1 mg/kg/day i.v.; for Intimal Area / % Inhibition (intimal area): 48 h pretreatment, 14 days; for % Inhibition (intimal area): vs. control
Protocol: The Effect of Compound II on restenosis in the rat
Rats were pretreated with Compound II or Compound I for the 48 hour period prior to surgery as well as on the day of surgery (1 mg/kg/day, bolus i.v.). Drug treatment was continued at the time of angioplasty (1 mg/kg/day, continuous i.v.) for the duration of the experiments (14 days).

[6] = test system: restenosis in the rat model; assay: Effects of Compound II (alone, + Compound I, + heparin) and heparin on restenosis in the rat model (balloon angioplasty); details: for Intimal Area / % Inhibition of restenosis (intimal area): 14 days after balloon angioplasty, Compounds 1 mg/kg/day i.v. with 48 h pretreatment; for Intimal Area: heparin 0.3 mg/kg bolus + 0.3 mg/kg/hr i.v. for 4 days; for % Inhibition of restenosis (intimal area): heparin 0.3 mg/kg/hr i.v. for 4 days, vs. control
Protocol: The effects of the angiotensin II (Site II) receptor antagonist Compound II on restenosis in the rat model
A vehicle treatment group was compared to rats treated with: i) the AII (AT2) receptor antagonist, Compound II; ii) Compound II plus the AII (AT1) receptor antagonist, Compound I; (iii) Compound II+heparin; and iv) heparin only. Combination treatment with Compound II and Compound I were administered for the 48 hour period prior to surgery as well as on the day of surgery at 1 mg/kg/day by bolus i.v. Compound II and Compound I treatment was continued at the time of angioplasty at 1 mg/kg/day by continuous i.v. delivery via Alzet minipumps for the duration of the experiments (14 days). Heparin was delivered as a 0.3 mg/kg i.v. bolus at the time of angioplasty followed by continous i.v. delivery at 0.3 mg/kg/hr by Alzet minipump. Heparin treatment was discontinued 4 days later. Fourteen days after balloon angioplasty, the rats were sacrificed and the extent of restenosis was determined by morphometric measurements of the newly-formed intima.

restenosis in the rat [7] = assay: Effect of Heparin on restenosis in the rat: time course; details: for I/M / Intima Area / Media Area: heparin 0.3 mg/kg/hr i.v.
Protocol: The effect of Heparin on restenosis in the rat: time course
Heparin (0.3 mg/kg/hr) was delivered by i.v. bolus (0.3 mg/kg) at the time of angioplasty followed by continuous i.v. delivery for 2, 4 or 14 days (0.3 mg/kg,hr). The animals were sacrificed on day 14.

[8] = PreRx (48 hr, 1 mg/kg/day), no heparin
[9] = no pretreatment, no heparin, Compound I 1.0 mg/kg/day i.v., 14 days
[10] = AII 14 ug/kg/hr i.v., Compound I 1.0 mg/kg bolus + 1.0 mg/kg/day i.v., day 14
[11] = no pretreatment, Hep 4d (0.3 mg/kg/hr i.v.)

## CCc1nc2c(C)cc(C)nc2n1Cc1ccc(-c2ccccc2-c2nnn[nH]2)cc1 [Compound I, 5,7-dimethyl-2-ethyl-3-[(2'-(1H-tetrazol-5-yl)[1,1']-biphenyl-4-yl]-methyl]-3H-imidazo[4,5-b]pyridine]
Restenosis in the rat [1]; 0.1 mg/kg/day i.v.
  I/M: 1.64 ± 0.09
  Intima Area: 0.212 ± 0.013 mm^2
  Media Area: 0.129 ± 0.003 mm^2
Restenosis in the rat [1]; 0.3 mg/kg/day i.v.
  I/M: 1.47 ± 0.19
  Intima Area: 0.148 ± 0.014 mm^2
  Media Area: 0.103 ± 0.009 mm^2
Restenosis in the rat [1]; 1.0 mg/kg/day i.v.
  I/M: 1.24 ± 0.04
  Intima Area: 0.149 ± 0.009 mm^2
[2]
  Intimal Area + sem: 0.121 ± 0.012 mm^2
  % Inhibition (intimal area): 41%
  inhibition of restenosis / neointima (in words): independently inhibit neointima in this model
Restenosis in the rat [3]
  effect on formation of the neointima (in words): inhibits this stimulation
Restenosis in the rat [4]; [8]
  I/M: 1.01 ± 0.07
  Media Area: 0.124 ± 0.006 mm^2
  Intima Area: 0.125 ± 0.010 mm^2
Restenosis in the rat [4]; [9]
  I/M: 1.19 ± 0.04
  Media Area: 0.125 ± 0.006 mm^2
  Intima Area: 0.149 ± 0.009 mm^2
Restenosis in the rat [4]; pretreatment for 2 days or co-administration of heparin
  reduction in the neointimal area (in words): reduction in the neointimal area when compared with no pretreatment
Restenosis in the rat [5]
  inhibition of neointimal formation (in words): may independently inhibit growth of the neointimal formation
  Intimal Area: 0.121 ± 0.012 mm^2
  % Inhibition (intimal area): 41%

## CCc1nc2ccc(N(Cc3ccccc3)C(=O)c3cccs3)cc2c(=O)n1Cc1ccc(-c2ccccc2-c2nn[nH]n2)cc1 [Compound II]
Restenosis in the rat [1]; 0.1-1.0 mg/kg/day i.v.
  inhibition of neointimal formation (in words): inhibits neointimal formation in a dose dependent manner
[2]
  Intimal Area + sem: 0.097 ± 0.027 mm^2
  % Inhibition (intimal area): 53%
  inhibition of restenosis / neointima (in words): inhibit restenosis in this model; also recorded: independently inhibit neointima in this model
Restenosis in the rat [5]
  inhibition of neointimal formation (in words): may independently inhibit growth of the neointimal formation
  Intimal Area: 0.097 ± 0.027 mm^2
  % Inhibition (intimal area): 53%
[6]
  Intimal Area: 0.097 ± 0.027 mm^2
  % Inhibition of restenosis (intimal area): 53%
[6]; rat carotid model, administration alone
  effect upon neointimal formation (in words): significant effect upon neointimal formation

## C[C@H](N[C@@H](CCc1ccccc1)C(=O)O)C(=O)N1CCC[C@H]1C(=O)O [enalaprilat]
[2]
  Intimal Area + sem: 0.133 ± 0.016 mm^2
  % Inhibition (intimal area): 35%
  inhibition of restenosis / neointima (in words): inhibit restenosis in this model; also recorded: independently inhibit neointima in this model

## Angiotensin II (DRVYIHPF; Angiotensin-2; UniProt P01019 25-32, looked up) [AII, powerful arterial vasoconstrictor]
Restenosis in the rat [3]; [10]
  I/M: 1.92 ± 0.19
  Intima Area: 0.348 ± 0.047 mm^2
  Media Area: 0.176 ± 0.008 mm^2
Restenosis in the rat [3]
  effect on formation of the neointima (in words): stimulates the formation of the neointima by almost two fold

## heparin
Restenosis in the rat [7]; 2 days
  I/M: 1.14 ± 0.13
  Intima Area: 0.144 ± 0.012 mm^2
  Media Area: 0.130 ± 0.008 mm^2
Restenosis in the rat [7]; 4 days
  I/M: 1.17 ± 0.10
  Intima Area: 0.158 ± 0.016 mm^2
  Media Area: 0.136 ± 0.010 mm^2
Restenosis in the rat [7]; 14 days
  I/M: 0.77 ± 0.05
  Intima Area: 0.098 ± 0.008 mm^2
  Media Area: 0.128 ± 0.004 mm^2
Restenosis in the rat [7]; heparin alone, 2, 4 or 14 days
  effect on formation of neointima (in words): decreases the formation of neointima; also recorded: greatest degree of inhibition was observed when heparin was given for 14 days
Restenosis in the rat [4]; Hep 2d alone
  I/M: 1.14 ± 0.13
  Media Area: 0.130 ± 0.008 mm^2
  Intima Area: 0.144 ± 0.012 mm^2
Restenosis in the rat [4]; [11]
  I/M: 1.17 ± 0.10
  Media Area: 0.136 ± 0.010 mm^2
  Intima Area: 0.158 ± 0.016 mm^2
[6]
  Intimal Area: 0.158 ± 0.016 mm^2
  % Inhibition of restenosis (intimal area): 23%
